The source of these data is patent publication EP4786483A1, “AURISTATIN DERIVATIVE AND ANTIBODY-DRUG CONJUGATE THEREOF” (priority 2023, dated 2025).

What all share (experiment): Cytotoxicity test for compounds (CellTiter-Glo cell proliferation inhibition)
Holding throughout (assay type): cell-based

For assay [1], the system named is Human gastric cancer cells NCI-N87. As to the method: (§1) Biological Test Example 1: Cytotoxicity Test for Compounds
(§2) • 96-well clear flat-bottom white plate (Corning, #3610) • RPMI1640 culture medium (Gibco, #A10491-01) • Fetal Bovine Serum (Sigma-Aldrich, #F8687-500ML) • CellTiter-Glo® Luminescent Cell Viability Assay (Promega, # G7572/G7571)
(§3) Human gastric cancer cells NCI-N87 (ATCC, Cat. No.: CRL-5822), human breast cancer cells MDA-MB-468 (Cell Bank of the Committee for Type Culture Collection of the Chinese Academy of Sciences, Cat. No.: TCHu136), and human breast cancer cells KPL-4 (Nanjing Cobioer Biosciences Co., Ltd., Cat. No.: CBP60379) were washed with PBS and digested with 0.25% Trypsin-EDTA trypsin for about 3-10 min. The digestion was terminated with a complete cell culture medium. The cells were centrifuged at 1000 rpm for 5 min, and the supernatant was discarded. The cells were resuspended in a complete cell culture medium. The cell number was counted using a cell counter, and the cells were adjusted to the desired density. 90.0 µL of the cell suspension was added to each well at 3000 cells/well. The cell plate was incubated in a cell incubator at 37°C with 5% CO2 overnight.
(§4) In the experiment, a DMSO control group and test sample groups were set. The cell plate was removed from the incubator to observe cell adherence. After the cells adhered, 10.00 µL of the sample (starting from a final concentration of 10 µM, 5-fold dilution, 9 concentrations) was added to each well. After the mixture was gently shaken uniformly, the plate was incubated in the incubator.
(§5) After 3 days of incubation, 100.0 µL/well of CellTiter-Glo™ (Promega, Cat. No.: G7572/G7571) working solution was added. The plate was shaken on a thermostatic shaker to lyse the cells. After 10 min, the plate was read on a microplate reader.
(§6) Data analysis: GraphPad Prism 8.0 software was used to plot a graph with the Log value of the sample concentration as the abscissa and the Inhibition% as the ordinate. The data were analyzed by Nonlinear regression (curve fit) to obtain the IC50 value of each test sample. Table 1. Inhibition activity of compounds of the present disclosure on cell proliferation

Assay [2] relates to human breast cancer cells KPL-4. On the procedure:
as §1, §2, §3, §4, §5, §6

Assay [3] has as its system human breast cancer cells MDA-MB-468. As to the method:
as §1, §2, §3, §4, §5, §6

The mark [4] stands for this setting: Homo sapiens, NCI-N87, 72 h, 3 days of incubation, CellTiter-Glo, read-out: NCI-87/IC50.
The mark [5] stands for this setting: Homo sapiens, KPL4, 72 h, 3 days of incubation, CellTiter-Glo, read-out: KPL-4/IC50.
[6] abbreviates: Homo sapiens, MDA-MB-468, 72 h, 3 days of incubation, CellTiter-Glo, read-out: MDA-MD-468/IC50.
[7] abbreviates: Homo sapiens, NCI-N87, 72 h, read-out: NCI-87/IC50 (nM).
Setting [8] is: Homo sapiens, KPL4, 72 h, read-out: KPL-4/IC50 (nM).
Where [9] appears, read: Homo sapiens, MDA-MB-468, 72 h, read-out: MDA-MD-468/IC50 (nM).
Setting [10] is: 3 days of incubation, CellTiter-Glo, read-out: NCI-87/IC50.
[11] abbreviates: 3 days of incubation, CellTiter-Glo, read-out: KPL-4/IC50.

Read-outs that look alike come from different tables or passages of the source.

With `C=CCN(C(=O)[C@H](C)[C@@H](OC)[C@@H]1CCCN1C(=O)C[C@@H](OC)[C@H]([C@@H](C)CC)N(C)C(=O)[C@@H](NC(=O)[C@H](C(C)C)N(C)C)C(C)C)[C@H](CC#N)Cc1cccc(N)c1` [Example 10, (S)-N-((3R,4S,5S)-1-((S)-2-((1R,2R)-3-(allyl((S)-1-(3-aminophenyl)-3-cyanopropan-2-yl)amino)-1-methoxy-2-methyl-3-oxopropyl)pyrrolidin-1-yl)-3-methoxy-5-methyl-1-oxoheptan-4-yl)-2-((S)-2-(dimethylamino)-3-methylbutanamido)-N,3-dimethylbutanamide], the IC50 in assay [1] (setting [4]) stood at 3.35 nM; in assay [2] (setting [5]) it was 1.25 nM; in assay [3] (setting [6]), 1.97 nM.
As for `CC[C@H](C)[C@@H]([C@@H](CC(=O)N1CCC[C@H]1[C@H](OC)[C@@H](C)C(=O)O[C@H](CN=[N+]=[N-])Cc1cccc(N)c1)OC)N(C)C(=O)[C@@H](NC(=O)[C@H](C(C)C)N(C)C)C(C)C` [Example 15], the IC50 in assay [1] (setting [7]) is 11.3 nM; in assay [2] (setting [8]) it was 2 nM; in assay [3] (setting [9]), 2.74 nM.
Regarding `C#CC(Cc1cccc(N)c1)OC(=O)[C@H](C)[C@@H](OC)[C@@H]1CCCN1C(=O)C[C@@H](OC)[C@H]([C@@H](C)CC)N(C)C(=O)[C@@H](NC(=O)[C@H](C(C)C)N(C)C)C(C)C` (single isomer, unassigned) [Example 21], the IC50 in assay [1] (setting [4]), in assay [2] (setting [5]) and in assay [3] (setting [6]) was less than 0.0256 nM throughout.
Consider `C=CCN(CCc1cccc(N)c1)C(=O)[C@H](C)[C@@H](OC)[C@@H]1CCCN1C(=O)C[C@@H](OC)[C@H]([C@@H](C)CC)N(C)C(=O)[C@@H](NC(=O)[C@H](C(C)C)N(C)C)C(C)C` [Example 5, (S)-N-((3R,4S,5S)-1-((S)-2-((1R,2R)-3-(allyl(3-aminophenethyl)amino)-1-methoxy-2-methyl-3-oxopropyl)pyrrolidin-1-yl)-3-methoxy-5-methyl-1-oxoheptan-4-yl)-2-((S)-2-(dimethylamino)-3-methylbutanamido)-N,3-dimethylbutanamide], for which the IC50 stood at 4.28 nM in assay [1] (setting [4]), 3.56 nM in assay [2] (setting [5]) and 8.81 nM in assay [3] (setting [6]).
For the compound `CC[C@H](C)[C@@H]([C@@H](CC(=O)N1CCC[C@H]1[C@H](OC)[C@@H](C)C(=O)O[C@@H](Cc1cccc(N)c1)C(F)F)OC)N(C)C(=O)[C@@H](NC(=O)[C@H](C(C)C)N(C)C)C(C)C` [Example 25], the IC50 in assay [1] (setting [7]), in assay [2] (setting [8]) and in assay [3] (setting [9]) was less than 0.0256 nM each time.
On to `CC[C@H](C)[C@@H]([C@@H](CC(=O)N1CCC[C@H]1[C@H](OC)[C@@H](C)C(=O)N1CCS(=O)(=O)[C@H](c2cccc(N)c2)C1)OC)N(C)C(=O)[C@@H](NC(=O)[C@H](C(C)C)N(C)C)C(C)C` (single isomer, unassigned) [Example 61-P1], for which the IC50 came to 93.9 nM in assay [1] (setting [4]), 49.5 nM in assay [2] (setting [5]) and 34.6 nM in assay [3] (setting [6]).
Taken in the same sequence, the figures for `CC[C@H](C)[C@@H]([C@@H](CC(=O)N1CCC[C@H]1[C@H](OC)[C@@H](C)C(=O)N(O)CCc1cccc(N)c1)OC)N(C)C(=O)[C@@H](NC(=O)[C@H](C(C)C)N(C)C)C(C)C` [Example 8, (S)-N-((3R,4S,SS)-1-((S)-2-((1R,2R)-3-((3-aminophenethyl)(hydroxy)amino)-1-methoxy-2-methyl-3-oxopropyl)pyrrolidin-1-yl)-3-methoxy-5-methyl-1-oxoheptan-4-yl)-2-((S)-2-(dimethylamino)-3-methylbutanamido)-N,3-dimethylbutanamide] were 0.66 nM, 0.14 nM and 0.56 nM.
On to `CCC(C)C(C(CC(=O)N1CCCC1C(OC)C(C)C(=O)OC(Cc1cccc(N)c1)C(=O)NC)OC)N(C)C(=O)C(NC(=O)C(C(C)C)N(C)C)C(C)C` (stereo not shown) [Example 30], for which the IC50 in assay [1] (setting [4]) was found to be 5.62 nM; in assay [2] (setting [5]) it was 2.42 nM; in assay [3] (setting [6]) it was 0.72 nM.
Consider `CC[C@H](C)[C@@H]([C@@H](CC(=O)N1CCC[C@H]1[C@H](OC)[C@@H](C)C(=O)OC(/C=C/C(=O)OC)Cc1cccc(N)c1)OC)N(C)C(=O)[C@@H](NC(=O)[C@H](C(C)C)N(C)C)C(C)C` (single isomer, unassigned) [Example 28], for which the IC50 was 3.33 nM in assay [1] (setting [4]), less than 0.0256 nM in assay [2] (setting [5]) and 3.25 nM in assay [3] (setting [6]).
As for `C#CC[C@H](Cc1cccc(N)c1)OC(=O)[C@H](C)[C@@H](OC)[C@@H]1CCCN1C(=O)C[C@@H](OC)[C@H]([C@@H](C)CC)N(C)C(=O)[C@@H](NC(=O)[C@H](C(C)C)N(C)C)C(C)C` [Example 17], the IC50 in assay [1] (setting [7]), in assay [2] (setting [8]) and in assay [3] (setting [9]) was less than 0.0256 nM each time.
For `CC[C@H](C)[C@@H]([C@@H](CC(=O)N1CCC[C@H]1[C@H](OC)[C@@H](C)C(=O)O[C@H](C)Cc1cccc(N)c1)OC)N(C)C(=O)[C@@H](NC(=O)[C@H](C(C)C)N(C)C)C(C)C` [Example 11, (R)-1-(3-aminophenyl)propan-2-yl (2R,3R)-3-((S)-1-((3R,4S,5S)-4-((S)-2-((S)-2-(dimethylamino)-3-methylbutanamido)-N,3-dimethylbutanamido)-3-methoxy-5-methylheptanoyl)pyrrolidin-2-yl)-3-methoxy-2-methylpropanoate], the values for the IC50 in assay [1] (setting [4]), in assay [2] (setting [5]) and in assay [3] (setting [6]) were 0.15 nM, 0.1 nM and 3 nM, respectively.
Regarding `CC[C@H](C)[C@@H]([C@@H](CC(=O)N1CCC[C@H]1[C@H](OC)[C@@H](C)C(=O)O[C@H](CO)Cc1cccc(N)c1)OC)N(C)C(=O)[C@@H](NC(=O)[C@H](C(C)C)N(C)C)C(C)C` [Example 14], the figures for the IC50 in assay [1] (setting [7]), in assay [2] (setting [8]) and in assay [3] (setting [9]) were 5.13 nM, 1.13 nM and 3.82 nM, respectively.
In the case of `CC[C@H](C)[C@@H]([C@@H](CC(=O)N1CCC[C@H]1[C@H](OC)[C@@H](C)C(=O)OC(/C=C/C(=O)OC)Cc1cccc(N)c1)OC)N(C)C(=O)[C@@H](NC(=O)[C@H](C(C)C)N(C)C)C(C)C` (single isomer, unassigned) [Example 29], the IC50 is 3.73 nM in assay [1] (setting [10]); less than 0.0256 nM in assay [2] (setting [11]); 3.17 nM in assay [3] (3 days of incubation, CellTiter-Glo, read-out: MDA-MD-468/IC50).
As for `CC[C@H](C)[C@@H]([C@@H](CC(=O)N1CCC[C@H]1[C@H](OC)[C@@H](C)C(=O)OC1(Cc2cccc(N)c2)CC1)OC)N(C)C(=O)[C@@H](NC(=O)[C@H](C(C)C)N(C)C)C(C)C` [Example 32], the IC50 in assay [1] (setting [7]), in assay [2] (setting [8]) and in assay [3] (setting [9]) was less than 0.0256 nM in each case.
With `CC[C@H](C)[C@@H]([C@@H](CC(=O)N1CCC[C@H]1[C@H](OC)[C@@H](C)C(=O)N1CCS[C@H](c2cccc(N)c2)C1)OC)N(C)C(=O)[C@@H](NC(=O)[C@H](C(C)C)N(C)C)C(C)C` (single isomer, unassigned) [Example 60-P1], the IC50 in assay [1] (setting [4]) was 9.63 nM; in assay [2] (setting [5]), 5.81 nM; in assay [3] (setting [6]), 8.02 nM.
For `CC[C@H](C)[C@@H]([C@@H](CC(=O)N1CCC[C@H]1[C@H](OC)[C@@H](C)C(=O)N1CCO[C@H](c2cccc(N)c2)C1)OC)N(C)C(=O)[C@@H](NC(=O)[C@H](C(C)C)N(C)C)C(C)C` [Example 48, (S)-N-((3R,4S,55)-1-((S)-2-((1R,2R)-3-((R)-2-(3-aminophenyl)morpholino)-1-methoxy-2-methyl-3-oxopropyl)pyrrolidin-1-yl)-3-methoxy-5-methyl-1-oxoheptan-4-yl)-2-((S)-2-(dimethylamino)-3-methylbutanamido)-N,3-dimethylbutanamide], the results for the IC50 in assay [1] (setting [10]) and in assay [2] (setting [11]) were 4.73 nM and 2.06 nM, respectively.
Taken in the same sequence, the figures for `CC[C@H](C)[C@@H]([C@@H](CC(=O)N1CCC[C@H]1[C@H](OC)[C@@H](C)C(=O)N1CCO[C@@H](c2cccc(N)c2)C1)OC)N(C)C(=O)[C@@H](NC(=O)[C@H](C(C)C)N(C)C)C(C)C` [Example 51, (S)-N-((3R,4S,SS)-1-((S)-2-((1R,2R)-3-((S)-2-(3-aminophenyl)morpholino)-1-methoxy-2-methyl-3-oxopropyl)pyrrolidin-1-yl)-3-methoxy-5-methyl-1-oxoheptan-4-yl)-2-((S)-2-(dimethylamino)-3-methylbutanamido)-N,3-dimethylbutanamide] were 16.1 nM and 6.03 nM.
